Results from PubChem BioAssay (NCI).
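How tested: cells in 96-well plates exposed to compound for 48 hours at five concentrations. GI50 = concentration required for 50% inhibition of growth. Definition used: TGI = concentration required for complete inhibition of growth.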

Tests used:
Test in all cases: DTP human tumour cell line panel, 48 h
[1] = test system: A549 NSCLC
[2] = test system: ACHN renal
[3] = test system: BT-549 breast
[4] = test system: CAKI-1 renal
[5] = test system: CCRF-CEM leukemia
[6] = test system: COLO 205 colon
[7] = test system: DU-145 prostate
[8] = test system: EKVX NSCLC
[9] = test system: HCC-2998 colon
[10] = test system: HCT-116 colon
[11] = test system: HCT-15 colon
[12] = test system: HOP-62 NSCLC
[13] = test system: HOP-92 NSCLC
[14] = test system: HS 578T breast
[15] = test system: HT29 colon
[16] = test system: K-562 leukemia
[17] = test system: KM12 colon
[18] = test system: LOX IMVI melanoma
[19] = test system: M14 melanoma
[20] = test system: MALME-3M melanoma
[21] = test system: MCF7 breast
[22] = test system: MDA-MB-435
[23] = test system: MOLT-4 leukemia
[24] = test system: NCI-H23 lung
[25] = test system: NCI-H460 lung
[26] = test system: NCI/ADR-RES ovarian
[27] = test system: OVCAR-3 ovarian
[28] = test system: OVCAR-4 ovarian
[29] = test system: OVCAR-5 ovarian
[30] = test system: OVCAR-8 ovarian
[31] = test system: PC-3 prostate
[32] = test system: RPMI-8226 leukemia
[33] = test system: SF-268 CNS
[34] = test system: SF-295 CNS
[35] = test system: SF-539 CNS
[36] = test system: SK-MEL-28 melanoma
[37] = test system: SK-MEL-5 melanoma
[38] = test system: SK-OV-3 ovarian
[39] = test system: SN12C renal
[40] = test system: SNB-19 CNS
[41] = test system: SNB-75 CNS
[42] = test system: SW-620 colon
[43] = test system: T-47D breast
[44] = test system: TK-10 renal
[45] = test system: U251 CNS
[46] = test system: UACC-257 melanoma
[47] = test system: UACC-62 melanoma

`Nc1ccccc1C#C/C=C\C#Cc1cnccn1` showed a GI50 [1] of 30.2 µM, a TGI [1] greater than 100 µM and a GI50 [2] of 22.2 µM. For the same compound, the TGI [2] was 79.7 µM, the GI50 [3] was 20.3 µM and the TGI [3] was 70.2 µM. It also gave a GI50 [4] of 46.3 µM, a TGI [4] greater than 100 µM and a TGI [5] of 14.8 µM. The GI50 [6] was 14.5 µM, the TGI [6] was 28.5 µM and the GI50 [7] was 19.4 µM. For the same compound, the TGI [7] was greater than 100 µM, the GI50 [8] was 16.3 µM and the TGI [8] was greater than 100 µM. It also gave a GI50 [9] of 11 µM, a TGI [9] of 23 µM and a GI50 [10] of 11.2 µM. For the same compound, the TGI [10] was 23.2 µM, the GI50 [11] was 26.1 µM and the TGI [11] was greater than 100 µM. For the same compound, the GI50 [12] was 13.6 µM, the TGI [12] was 32.3 µM and the GI50 [13] was 1.36 µM. It also gave a TGI [13] of 18.3 µM, a GI50 [14] of 27 µM and a TGI [14] greater than 100 µM. It also gave a GI50 [15] of 23.4 µM, a TGI [15] of 74.3 µM and a GI50 [16] of 6.66 µM. The TGI [16] was greater than 100 µM, the GI50 [17] was 23.3 µM and the TGI [17] was greater than 100 µM. It also gave a GI50 [18] of 2.93 µM, a TGI [18] of 17.5 µM and a GI50 [19] of 6.21 µM. The TGI [19] was 20.4 µM, the GI50 [20] was 19.9 µM and the TGI [20] was 58.6 µM. It also gave a GI50 [21] of 21.3 µM, a TGI [21] greater than 100 µM and a GI50 [22] of 48.4 µM. It also gave a TGI [22] greater than 100 µM, a GI50 [23] of 12.4 µM and a TGI [23] of 68.5 µM. For the same compound, the GI50 [24] was 12.1 µM, the TGI [24] was 27 µM and the GI50 [25] was 29.8 µM. The TGI [25] was greater than 100 µM, the GI50 [26] was 13.7 µM and the TGI [26] was 31.9 µM. For the same compound, the GI50 [27] was 86.5 µM, the TGI [27] was greater than 100 µM and the GI50 [28] was 23.1 µM. The TGI [28] was greater than 100 µM, the GI50 [29] was 18.8 µM and the TGI [29] was 45.7 µM. For the same compound, the GI50 [30] was 41.8 µM, the TGI [30] was greater than 100 µM and the GI50 [31] was 4.11 µM. It also gave a TGI [31] of 23.8 µM, a GI50 [32] of 3.17 µM and a TGI [32] of 19.2 µM. For the same compound, the GI50 [33] was 27.5 µM, the TGI [33] was greater than 100 µM and the GI50 [34] was 74.6 µM. The TGI [34] was greater than 100 µM, the GI50 [35] was 22.8 µM and the TGI [35] was 87.6 µM. The GI50 [36] was 27.8 µM, the TGI [36] was greater than 100 µM and the GI50 [37] was 6.34 µM. For the same compound, the TGI [37] was 21.3 µM, the GI50 [38] was 31.1 µM and the TGI [38] was 95.5 µM. The GI50 [39] was 4.33 µM, the TGI [39] was 20.7 µM and the GI50 [40] was 36.7 µM. For the same compound, the TGI [40] was greater than 100 µM, the GI50 [41] was 21.1 µM and the TGI [41] was 90.7 µM. It also gave a GI50 [42] of 15.2 µM, a TGI [42] of 46.1 µM and a GI50 [43] of 17.7 µM. It also gave a TGI [43] of 40.3 µM, a GI50 [44] of 32.4 µM and a TGI [44] of 60 µM. The GI50 [45] was 18.2 µM, the TGI [45] was 41.8 µM and the GI50 [46] was 26 µM. For the same compound, the TGI [46] was greater than 100 µM, the GI50 [47] was 3.95 µM and the TGI [47] was 21 µM.
